Results from patent US9845323B2, “2-(1,3,4-oxadiazol-2-yl)-7-oxo-1,6-diazabicyclo[3.2.1 ]octane derivatives and their use as antibacterial agents” (WOCKHARDT LIMITED, priority 2014, dated 2017).
≈ marks a conversion by molar mass, not a printed value.

How the values were obtained:
[1] = test system: K. Pneomoniae S48 (NDM, SHV, TEM); test: Agar dilution MIC (CLSI), compound alone; format: cell-based, K. pneumoniae; conditions: Klebsiella pneumoniae
Protocol: (§1) The biological activity of representative compounds according to the invention against various bacterial strains was investigated. In a typical study, overnight grown bacterial cultures were diluted appropriately and inoculated on the agar media containing doubling dilutions of the test compounds. Observations for growth or no growth was performed after 16-20 hours of incubation at 35±2° C. in the ambient air. The overall procedure was performed as per Clinical and Laboratory Standards Institute (CLSI) recommendations, (Clinical and Laboratory Standards Institute (CLSI), Performance Standards for Antimicrobial Susceptibility Testing, 20th Informational Supplement, M 07-A9, Volume 32, No. 2, 2012). Molten Mueller Hinton Agar (BD, USA) containing serial dilutions of each antibacterial agent were poured on to the plates and allowed to solidify. Appropriate suspensions from the freshly grown cultures were prepared in normal saline so that about 10^4 CFU/spot of the organism was delivered on to the drug containing agar plates using automated multipoint inoculator (Mast, UK). The plates were incubated in Biochemical oxygen demand (BOD) incubator at 37° C. for 18 hours and then examined for growth.

P. aeruginosa ATCC 27853 = test: Agar dilution MIC (CLSI), compound alone; format: cell-based; conditions: Pseudomonas aeruginosa, ATCC27853
Protocol: as §1

E. coli 7 MP = test: Agar dilution MIC (CLSI), compound alone; format: cell-based; conditions: Escherichia coli
Protocol: as §1

K. pneumoniae B 77 = test: Agar dilution MIC (CLSI), compound alone; format: cell-based; conditions: Klebsiella pneumoniae, B77
Protocol: as §1

E. coli NCTC 13351 = test: Agar dilution MIC (CLSI), compound alone; format: cell-based; conditions: Escherichia coli, NCTC13351
Protocol: as §1

P. aeruginosa PAO1 = test: Agar dilution MIC (CLSI), compound alone; format: cell-based; conditions: Pseudomonas aeruginosa
Protocol: as §1

E. coli NCTC 13352 = test: Agar dilution MIC (CLSI), compound alone; format: cell-based; conditions: Escherichia coli, NCTC13352
Protocol: as §1

E. coli M 50 = test: Agar dilution MIC (CLSI), compound alone; format: cell-based; conditions: Escherichia coli, M50
Protocol: as §1

K. pneumoniae S 21 = test: Agar dilution MIC (CLSI), compound alone; format: cell-based; conditions: Klebsiella pneumoniae, S21
Protocol: as §1

P. aeruginosa 2779 = test: Agar dilution MIC (CLSI), compound alone; format: cell-based; conditions: Pseudomonas aeruginosa
Protocol: as §1

[2] = test system: E. coli NCTC 13353 (CTX-M15, OXA-1); test: Agar dilution MIC (CLSI), compound alone; format: cell-based
Protocol: as §1

E. cloacae M 20 = test: Agar dilution MIC (CLSI), compound alone; format: cell-based; conditions: Enterobacter cloacae, M20
Protocol: as §1

E. coli M 49 = test: Agar dilution MIC (CLSI), compound alone; format: cell-based; conditions: Escherichia coli, M49
Protocol: as §1

[3] = test system: K. pneumoniae H521 (KPC, SHV, TEM); test: Agar dilution MIC (CLSI), compound alone; format: cell-based
Protocol: as §1

K. pneumoniae H 525 = test: Agar dilution MIC (CLSI), compound alone; format: cell-based; conditions: Klebsiella pneumoniae, H525
Protocol: as §1

P. aeruginosa R 20 = test: Agar dilution MIC (CLSI), compound alone; format: cell-based; conditions: Pseudomonas aeruginosa, R20
Protocol: as §1

C. frundaii 58 MP = test: Agar dilution MIC (CLSI), compound alone; format: cell-based
Protocol: as §1

[4] = test system: Multi Drug Resistant (MDR) Gram-negative bacterial strains; test: Antibacterial activity alone; format: cell-based; conditions: compounds used alone; compared with standards (imipenem, ceftazidime) or avibactam
Protocol: as §1

[5] = target: Class A beta-lactamase SHV 18 (K. pneumoniae ATCC 700603) (Klebsiella pneumoniae, UniProt P0AD64); test: Beta-lactamase enzyme inhibition (Nitrocefin, crude enzyme); format: biochemical; conditions: read-out: Beta-lactamase enzyme inhibition IC50, K. pneumoniae ATCC 700603 (SHV 18), Nitrocefin 100 μM
Protocol: (§2) Absorbance was measured at 485 nm by UV-spectrophotometer. The IC50 was calculated by plotting absorbance against concentration through Sigmoidal dose response curve using Graph Pad software.

[6] = target: T1, Class D beta-lactamase OXA 23 (A baumannii NCTC 13301) (Acinetobacter baumannii, UniProt Q9L4P2); test: as above; format: biochemical; conditions: A baumannii NCTC 13301 (OXA 23), Nitrocefin 100 μM
T1 construct: preincubated mixture of crude enzyme and the compounds; endogenous in cells; host or cells: A. baumannii NCTC 13301 (crude enzyme preparation)
Protocol: as §2

[7] = test system: Class C beta-lactamase CMY/DHA (E. coli M50); test: as above; format: biochemical; conditions: Nitrocefin 100 μM
Protocol: as §2

T1 sequence (Q9L4P2 18-273): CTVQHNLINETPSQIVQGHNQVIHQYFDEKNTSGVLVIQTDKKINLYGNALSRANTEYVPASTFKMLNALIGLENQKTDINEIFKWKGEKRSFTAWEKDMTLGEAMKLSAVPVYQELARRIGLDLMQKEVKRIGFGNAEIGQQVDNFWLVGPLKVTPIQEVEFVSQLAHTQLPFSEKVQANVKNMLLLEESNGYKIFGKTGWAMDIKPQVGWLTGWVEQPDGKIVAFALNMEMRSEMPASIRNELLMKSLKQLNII
Chain of Class A beta-lactamase SHV 18 (K. pneumoniae ATCC 700603) (P0AD64 22-286 limits assumed): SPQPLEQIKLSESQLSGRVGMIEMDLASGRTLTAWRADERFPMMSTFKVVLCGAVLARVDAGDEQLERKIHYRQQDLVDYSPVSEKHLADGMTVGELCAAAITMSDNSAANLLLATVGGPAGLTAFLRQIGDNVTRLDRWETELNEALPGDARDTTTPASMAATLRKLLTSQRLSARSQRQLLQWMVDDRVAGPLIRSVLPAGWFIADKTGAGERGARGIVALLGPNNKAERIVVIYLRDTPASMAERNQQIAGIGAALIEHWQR

`O=C1N2C[C@@H](CC[C@H]2c2nnc(Cc3ccccc3)o2)N1OS(=O)(=O)O` [Example 5, (2S,5R)-sulfuric acid mono-[2-(5-benzyl-[1,3,4]-oxadiazol-2-yl)-7-oxo-1,6-diaza-bicyclo[3.2.1]oct-6-yl] ester] was tested, and the MIC [1] was 8 µg/mL (≈ 21 µM), the MIC (P. aeruginosa ATCC 27853) was greater than 32 µg/mL and the MIC (E. coli 7 MP) was 32 µg/mL (≈ 84.1 µM). The MIC (K. pneumoniae B 77) was greater than 32 µg/mL, the MIC (E. coli NCTC 13351) was 16 µg/mL (≈ 42.1 µM) and the MIC (P. aeruginosa PAO1) was greater than 32 µg/mL. For the same molecule, the MIC (E. coli NCTC 13352) was 16 µg/mL (≈ 42.1 µM), the MIC (E. coli M 50) was 16 µg/mL (≈ 42.1 µM) and the MIC (K. pneumoniae S 21) was greater than 32 µg/mL. It also gave an MIC (P. aeruginosa 2779) greater than 32 µg/mL, an MIC ([2]; E. coli NCTC 13353, Table 3) of 8 µg/mL (≈ 21 µM) and an MIC ([2]; Escherichia coli, NCTC13353) of 8 µg/mL (≈ 21 µM). It also gave an MIC (E. cloacae M 20) greater than 32 µg/mL, an MIC (E. coli M 49) greater than 32 µg/mL and an MIC ([3]; K. pneumoniae H 521, Table 3) of 32 µg/mL (≈ 84.1 µM). For the same molecule, the MIC ([3]; Klebsiella pneumoniae) was 32 µg/mL (≈ 84.1 µM), the MIC (K. pneumoniae H 525) was 16 µg/mL (≈ 42.1 µM) and the MIC (P. aeruginosa R 20) was greater than 32 µg/mL. For the same molecule, the MIC (C. frundaii 58 MP) was greater than 32 µg/mL, the “Antibacterial activity (MIC values) in words” value [4] was “exhibited antibacterial activity in comparison to avibactam” and the IC50 [5] was 33 nM. For the same molecule, the IC50 [6] was 280 nM and the IC50 [7] was 6 nM.
